Assay results: US6706740B2, “Fungicidal heterocyclic aromatic amides and their compositions, methods of use and preparation” (Dow AgroSciences LLC, priority 1999, dated 2004)

Key:
[1] = system: Magnaporthe grisea (Pyricularia oryzae—PYRIOR); assay: microbe, parasite or virus in culture; format: cell-based; conditions: for inhibition at 25 ppm: Pyricularia oryzae, read-out: PYRIOR in vitro Growth Inhibition
[2] = system: Rhizoctonia solani (RHIZSO); assay: microbe, parasite or virus in culture; format: cell-based; conditions: for inhibition at 25 ppm: Rhizoctonia solani, read-out: RHIZSO in vitro Growth Inhibition
[3] = system: Mycosphaerella graminicola (Septoria tritici—SEPTTR); assay: In vitro fungal growth inhibition, Mycosphaerella graminicola (SEPTTR); format: cell-based; conditions: 25 ppm in growth medium; for inhibition at 25 ppm: Zymoseptoria tritici, read-out: SEPTTR in vitro Growth Inhibition
[4] = system: Stagonospora nodorum (Leptosphaeria nodorum—LEPTNO); assay: In vitro fungal growth inhibition, Stagonospora nodorum (LEPTNO); format: cell-based; conditions: 25 ppm in growth medium; for inhibition at 25 ppm: Leptosphaeria, read-out: LEPTNO in vitro Growth Inhibition
[5] = system: Ustilago maydis (USTIMA); assay: microbe, parasite or virus in culture; format: cell-based; conditions: for inhibition at 25 ppm: Mycosarcoma maydis, read-out: USTIMA in vitro Growth Inhibition
[6] = system: Phytophthora infestans (PHYTIN); assay: microbe, parasite or virus in culture; format: cell-based; conditions: for inhibition at 25 ppm: Phytophthora infestans, read-out: PHYTIN in vitro Growth Inhibition
[7] = system: Phytophthora infestans—PHYTIN; assay: whole plant or invertebrate; format: in vivo; conditions: for pest or weed control at 100 ppm: Phytophthora, in Solanum lycopersicum, 24 h, read-out: PHYTIN in vivo 1 Day Protectant
[8] = system: Puccinia recondita—PUCCRT; assay: Brown Rust of Wheat, in vivo whole plant, 24 Hour Protectant; conditions: 100 ppm spray, 24 hour protectant, wheat, control of fungal infection vs untreated plants; for pest or weed control at 100 ppm: Puccinia, read-out: PUCCRT in vivo 1 Day Protectant
[9] = system: Erysiphe graminis—ERYSGT; assay: Powdery Mildew of Wheat, in vivo whole plant, 24 Hour Protectant; conditions: 100 ppm spray, 24 hour protectant, wheat, control of fungal infection vs untreated plants; for pest or weed control at 100 ppm: Erysiphe, read-out: ERYSGT in vivo 1 Day Protectant
[10] = system: Septoria tritici—SEPTTR; assay: Leaf Blotch of Wheat, in vivo whole plant, 24 Hour Protectant; conditions: 100 ppm spray, 24 hour protectant, wheat, control of fungal infection vs untreated plants; for pest or weed control at 100 ppm: Zymoseptoria tritici, 24 h, read-out: SEPTTR in vivo 1 Day Protectant
[11] = system: Leptosphaeria nodorum—LEPTNO; assay: Glume Blotch of Wheat, in vivo whole plant, 24 Hour Protectant; conditions: 100 ppm spray, 24 hour protectant, wheat, control of fungal infection vs untreated plants; for pest or weed control at 100 ppm: Leptosphaeria, read-out: LEPTNO in vivo 1 Day Protectant

SMILES	inhibition at 25 ppm [1] [%]	inhibition at 25 ppm [2] [%]	inhibition at 25 ppm [3] [%]	inhibition at 25 ppm [4] [%]	inhibition at 25 ppm [5] [%]	inhibition at 25 ppm [6] [%]	pest or weed control at 100 ppm [7] [%]	pest or weed control at 100 ppm [8] [%]	pest or weed control at 100 ppm [9] [%]	pest or weed control at 100 ppm [10] [%]	LEPTNO in vivo 1 Day Protectant [11]	pest or weed control at 100 ppm [11] [%]	further results
COc1ccnc(C(=O)NC2CC(C)(C)CC3(C2)CC3(F)F)c1O (stereo not drawn) [Compound 255]	< 80	< 80	> 80	< 80	< 80	< 80	< 25	25 to 74	< 25	25 to 74	+ +		
COc1ccnc(C(=O)NC2CC(C(F)(F)F)CC(C(F)(F)F)C2)c1O (stereo not drawn) [Compound 256]	< 80	< 80	< 80	< 80	< 80	< 80	< 25	25 to 74	25 to 74	25 to 74		25 to 74	
COc1ccnc(C(=O)NC2CC(C)(C)CC(C)(COCC(Cl)CCl)C2)c1O (stereo not drawn) [Compound 257]	< 80	< 80	> 80	> 80	> 80	> 80	< 25	25 to 74	< 25	25 to 74	+ +		
COc1ccnc(C(=O)NC2CC(c3ccco3)CC(C)(C)C2)c1O (stereo not drawn) [Compound 258]	< 80	< 80	> 80	> 80	< 80	> 80	< 25	< 25	< 25	25 to 74		25 to 74	
COc1ccnc(C(=O)NC2C[C@H](C)C[C@H](c3ccccn3)C2)c1O (stereo partly drawn) [Compound 259]	< 80	< 80	< 80	< 80	< 80	< 80	25 to 74	25 to 74	< 25	25 to 74		25 to 74	
COc1ccnc(C(=O)NC2CC(C)(C)CC(C)(C(=O)OCCC(C)(C)C)C2)c1O (stereo not drawn) [Compound 261]	< 80	< 80	> 80	> 80	< 80	> 80	25 to 74	25 to 74	< 25	25 to 74		25 to 74	
COc1ccnc(C(=O)N[C@@H]2CC(C)(C)C[C@](C)(C(=O)N(C)CCc3ccccc3)C2)c1O [Compound 263]											+ (25-74% control of fungal infection)		PYRIOR in vitro Growth Inhibition ([1]; 25 ppm in growth medium): − (less than 80% growth inhibition); RHIZSO in vitro Growth Inhibition [2]: − (key: +: at least 80% growth inhibition; −: less than 80% growth inhibition); SEPTTR in vitro Growth Inhibition [3]: − (less than 80% growth inhibition); LEPTNO in vitro Growth Inhibition [4]: − (less than 80% growth inhibition); USTIMA in vitro Growth Inhibition [5]: − (key: +: at least 80% growth inhibition; −: less than 80% growth inhibition); PHYTIN in vitro Growth Inhibition ([6]; 25 ppm in growth medium): − (less than 80% growth inhibition); PHYTIN in vivo 1 Day Protectant ([7]; 100 ppm spray, 24 hour protectant, tomato, control of fungal infection vs untreated plants): − (<25% control of fungal infection); PUCCRT in vivo 1 Day Protectant [8]: − (<25% control of fungal infection); ERYSGT in vivo 1 Day Protectant [9]: − (<25% control of fungal infection); SEPTTR in vivo 1 Day Protectant [10]: − (<25% control of fungal infection)
COc1ccnc(C(=O)N[C@H]2CC(C)(C)[C@H](O)C(C)(C)C2)c1O [Compound 264, trans-4-HYDROXY-3,3,5,5-TETRAMETHYLPICOLINAMIDE]	< 80	< 80	< 80	< 80	< 80	< 80	< 25	25 to 74	< 25	25 to 74		< 25	
COc1ccnc(C(=O)NC2CC(C)(C)C(OC)C(C)(C)C2)c1O (stereo not drawn) [Compound 265]	< 80	< 80	< 80	< 80	< 80	< 80	< 25	< 25	25 to 74	25 to 74		25 to 74	
